Measured values from US9408889B2, “Fusion peptide designed to reduce plaque bacteria and yeast in the oral cavity” (RUTGERS, THE STATE UNIVERSITY OF NEW JERSEY, priority 2011, dated 2016).

Columns and labels:
[1] = system: Streptococcus mutans; assay: Killing of Streptococcus mutans by lactoferrin variants and peptide; assay type: cell-based; settings: synthetic peptide
Description: Caries is the single most common chronic childhood disease, five times more common than asthma. Over 70% of children […] have cavities. Over 108 million Americans lack dental health insurance so that treatment of this infection is lacking. S. mutans is considered one of the microbes most associated with dental decay.
Others have shown that lactoferrin peptides have antimicrobial activity, but no one to date has shown that the antibacterial activity derived from this peptide is useful against organisms in the oral cavity. We have also determined that the peptide will have limited usefulness in the oral cavity unless it is linked to something that will allow the peptide to bind to a surface in the oral cavity. A fusion peptide comprising lactoferrin and statherin was previously developed, wherein the lactoferrin portion provided antimicrobial activity while the statherin portion enabled the fusion peptide to adhere to the tooth surface. […]
Lactoferrin (Lf or LF) is a multifunctional protein that is found in mammary secretion, tears and saliva and in the gastrointestinal tract. […] Further we then determined that pure lactoferrin would have limited usefulness in the oral cavity unless it was linked to something that would allow it to bind to the oral cavity.

[2] = system: oral bacteria; settings: bacteria grown in a broth media; cited from earlier work
[3] = system: bacteria; settings: cited from earlier work
[4] = system: Candida; assay: Two hour cell killing assay with supernatants from salivary-coated HAP or BECs; assay type: cell-based; settings: sHAP incubated with peptide, washed, 1 hour release; 2 hour cell killing assay
Procedure: The procedures depicted in FIG. 5 were carried out with two LF fusion peptides (ST-LF and PAK-LF). Salivary-coated HAP was incubated with ST-LF peptide for 30 minutes and then washed with PBS and the supernatant tested. Fresh PBS was added, and the salivary-coated HAP was further incubated for 1 hour. The salivary-coated HAP was again rinsed and the supernatant solution was then tested for anti-candidal activity. The results are depicted in FIG. 6.

[5] = previously demonstrated; cited from earlier work

## LF: FQWQRNMRKVR, lactoferrin peptide, lys form (listed as Homo sapiens)
[1]
  killing of Streptococcus mutans: kills Streptococcus mutans

## Penicillin
[2]
  effective concentration against oral bacteria: 1 µg/mL
[3]
  adherence of bacteria to drug-treated, washed SHA: no effect

## ST-LF: DDDEEKFQWQRNMRKVR, statherin-lactoferrin fusion peptide of PCT/US08/51165 (ST-LF fusion peptide)
[4]
  anti-candidal activity of supernatant from salivary-coated HAP: no inhibition of Candida
[5]
  binding to tooth enamel surfaces: bind to tooth enamel surfaces
